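Assay format: 96-well plates, 48-hour exposure. TGI denotes the concentration required for complete inhibition of growth.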
Assays:
Assay in all cases: DTP human tumour cell line panel, 48 h
[1] = system: NCI-H226 lung
[2] = system: UACC-62 melanoma
[3] = system: NCI/ADR-RES ovarian
[4] = system: HCT-116 colon
[5] = system: HS 578T breast
[6] = system: RXF 393 renal
[7] = system: U251 CNS
[8] = system: TK-10 renal
[9] = system: UACC-257 melanoma
[10] = system: SF-268 CNS
[11] = system: IGROV1 ovarian
[12] = system: PC-3 prostate
[13] = system: OVCAR-4 ovarian
[14] = system: MDA-MB-435
[15] = system: OVCAR-3 ovarian
[16] = system: SNB-19 CNS
[17] = system: K-562 leukemia
[18] = system: SK-MEL-2 melanoma
[19] = system: MDA-MB-231 breast
[20] = system: OVCAR-5 ovarian
[21] = system: M14 melanoma
[22] = system: MOLT-4 leukemia
[23] = system: SNB-75 CNS
[24] = system: SF-539 CNS
[25] = system: NCI-H460 lung
[26] = system: A549 NSCLC
[27] = system: BT-549 breast
[28] = system: HL-60(TB) leukemia
[29] = system: COLO 205 colon
[30] = system: NCI-H522 lung
[31] = system: MCF7 breast
[32] = system: SK-OV-3 ovarian
[33] = system: DU-145 prostate
[34] = system: HT29 colon
[35] = system: HOP-62 NSCLC
[36] = system: KM12 colon
[37] = system: CAKI-1 renal
[38] = system: UO-31 renal
[39] = system: CCRF-CEM leukemia
[40] = system: NCI-H23 lung
[41] = system: MALME-3M melanoma
[42] = system: A498 renal
[43] = system: SW-620 colon
[44] = system: SK-MEL-5 melanoma
[45] = system: RPMI-8226 leukemia
[46] = system: SR leukemia
[47] = system: ACHN renal
[48] = system: MDA-N
[49] = system: EKVX NSCLC
[50] = system: HOP-92 NSCLC
[51] = system: HCC-2998 colon
[52] = system: 786-0 renal
[53] = system: SF-295 CNS
[54] = system: SN12C renal
[55] = system: HCT-15 colon
[56] = system: OVCAR-8 ovarian
[57] = system: T-47D breast
[58] = system: SK-MEL-28 melanoma
[59] = system: LOX IMVI melanoma

C[C@]12C[C@@H](c3ccccc3)Nc3ccccc3N1C(c1ccccc1)=NO2
TGI [1]: 90.8 µM | TGI [2]: > 100 µM | TGI [3]: > 100 µM | TGI [4]: > 100 µM | TGI [5]: > 100 µM | TGI [6]: > 100 µM | TGI [7]: > 100 µM | TGI [8]: > 100 µM | TGI [9]: > 100 µM | TGI [10]: > 100 µM | TGI [11]: > 100 µM | TGI [12]: > 100 µM | TGI [13]: 81.9 µM | TGI [14]: 58.5 µM | TGI [15]: > 100 µM | TGI [16]: > 100 µM | TGI [17]: > 100 µM | TGI [18]: 76.3 µM | TGI [19]: > 100 µM | TGI [20]: > 100 µM | TGI [21]: 93.3 µM | TGI [22]: 43.5 µM | TGI [23]: 69.4 µM | TGI [24]: > 100 µM | TGI [25]: > 100 µM | TGI [26]: > 100 µM | TGI [27]: 90.3 µM | TGI [28]: 71.9 µM | TGI [29]: 34.7 µM | TGI [30]: 86.4 µM | TGI [31]: > 100 µM | TGI [32]: > 100 µM | TGI [33]: > 100 µM | TGI [34]: > 100 µM | TGI [35]: > 100 µM | TGI [36]: > 100 µM | TGI [37]: > 100 µM | TGI [38]: 89.5 µM | TGI [39]: 74.3 µM | TGI [40]: > 100 µM | TGI [41]: > 100 µM | TGI [42]: > 100 µM | TGI [43]: > 100 µM | TGI [44]: 30.8 µM | TGI [45]: 49.3 µM | TGI [46]: 34.6 µM | TGI [47]: > 100 µM | TGI [48]: 68.7 µM | TGI [49]: 79.3 µM | TGI [50]: 58.4 µM | TGI [51]: > 100 µM | TGI [52]: > 100 µM | TGI [53]: > 100 µM | TGI [54]: > 100 µM | TGI [55]: > 100 µM | TGI [56]: > 100 µM

COC(=O)c1cc2cc3c(c(O)c2c(=O)o1)O[C@@]1(Oc2c(O)c4c(c(O)c2[C@H]1OC1CC(OC)C(O)C(C)O1)C(=O)C=C(OC)C4=O)[C@H](O)C3 (stereo partly specified)
TGI [1]: 17.1 µM | TGI [2]: 1.78 µM | TGI [3]: > 100 µM | TGI [4]: > 20.8 µM | TGI [6]: 3.25 µM | TGI [8]: 17.5 µM | TGI [9]: 14.1 µM | TGI [10]: 5.19 µM | TGI [11]: 7.17 µM | TGI [12]: 12.2 µM | TGI [13]: 2.89 µM | TGI [14]: 7.47 µM | TGI [15]: > 23.4 µM | TGI [16]: 12.6 µM | TGI [17]: 8.82 µM | TGI [18]: 10.5 µM | TGI [19]: 5.95 µM | TGI [20]: > 24.3 µM | TGI [21]: > 100 µM | TGI [22]: 6.22 µM | TGI [24]: 1.97 µM | TGI [25]: > 21.6 µM | TGI [27]: 4.93 µM | TGI [28]: 3.39 µM | TGI [29]: 14.1 µM | TGI [30]: 5.19 µM | TGI [31]: 10.1 µM | TGI [32]: 17 µM | TGI [33]: 7.87 µM | TGI [34]: > 20.3 µM | TGI [35]: 5.37 µM | TGI [36]: 9.51 µM | TGI [37]: 3.2 µM | TGI [38]: > 30.4 µM | TGI [40]: 3.85 µM | TGI [43]: > 39.8 µM | TGI [45]: 4.44 µM | TGI [46]: 4.76 µM | TGI [57]: 7.2 µM | TGI [47]: 9.19 µM | TGI [48]: > 100 µM | TGI [49]: 12.3 µM | TGI [50]: > 23.6 µM | TGI [58]: 1.91 µM | TGI [53]: > 29.6 µM | TGI [54]: 12.1 µM | TGI [55]: > 19.7 µM | TGI [56]: 10.7 µM

O=C1CCCC1C(O)(C(F)(F)F)C(F)(F)F (stereo unspecified)
TGI [1]: > 100 µM | TGI [2]: > 100 µM | TGI [3]: > 100 µM | TGI [4]: > 100 µM | TGI [5]: > 100 µM | TGI [6]: > 100 µM | TGI [7]: > 100 µM | TGI [8]: > 100 µM | TGI [9]: > 100 µM | TGI [10]: > 100 µM | TGI [11]: > 100 µM | TGI [12]: > 100 µM | TGI [13]: > 100 µM | TGI [14]: > 100 µM | TGI [15]: > 100 µM | TGI [16]: > 100 µM | TGI [17]: > 100 µM | TGI [18]: > 100 µM | TGI [19]: > 100 µM | TGI [20]: > 100 µM | TGI [21]: > 100 µM | TGI [22]: > 100 µM | TGI [23]: > 100 µM | TGI [24]: > 100 µM | TGI [25]: > 100 µM | TGI [26]: > 100 µM | TGI [28]: > 100 µM | TGI [29]: > 100 µM | TGI [30]: > 100 µM | TGI [31]: > 100 µM | TGI [33]: > 100 µM | TGI [34]: > 100 µM | TGI [35]: > 100 µM | TGI [36]: > 100 µM | TGI [37]: > 100 µM | TGI [38]: > 100 µM | TGI [39]: > 100 µM | TGI [40]: > 100 µM | TGI [41]: > 100 µM | TGI [42]: > 100 µM | TGI [43]: > 100 µM | TGI [44]: > 100 µM | TGI [45]: > 100 µM | TGI [46]: > 100 µM | TGI [59]: > 100 µM | TGI [57]: > 100 µM | TGI [47]: > 100 µM | TGI [48]: > 100 µM | TGI [49]: > 100 µM | TGI [50]: > 100 µM | TGI [58]: > 100 µM | TGI [51]: > 100 µM | TGI [52]: > 100 µM | TGI [53]: > 100 µM | TGI [54]: > 100 µM | TGI [55]: > 100 µM | TGI [56]: > 100 µM

Reference: PubChem BioAssay (NCI)
